Tests used:
CT26‐luc cells = assay: Annexin V-FITC/propidium iodide (AV/PI) cell viability assay by flow cytometry; type: cell-based, mouse; conditions: 740 nm LED light (60 min, 12.6 J cm^−2)
Experimental: Following the gold standard assessment method, the Annexin V‐FITC/propidium iodide (AV/PI) dual staining assay was conducted to screen the suitable concentrations of each drug (Figure S25). In addition, to better monitor tumor growth in vivo, luciferase‐labelled tumor cells (CT26‐luc) were used for in vivo experiments by bioluminescence imaging. […] As the concentration of each drug was increased, the proportion of live cells decreased, while the percentage of dying cells (Q3, Annexin V^+/PI^−) and dead cells (Q2, Annexin V^+/PI^+ and Q1, Annexin V^−/PI^+) increased. The concentrations at which approximately 5% of the cells remained alive (IC95) were 600 µM for Cisplatin in the dark, 1.8 µM for Os2, and 6.5 µM for Ce6 upon 740 nm LED light irradiation (60 min, 12.6 J cm^−2). These concentrations were selected for the subsequent in vivo vaccination studies. […]
incubated for 24 h. Cells were then treat ed with the determined IC50 of complexes and irradiated or kept in the dark. Supernatants were collected 12 h post-t reatm ent, and the extracellular ATP content was measured with Adenosine 5′ -triphosphate (ATP) Bioluminescent Assay Kit (Sigma-Aldrich) according tomanufacturer ’s ins truction. […]
556419) and PI (BD Biosciences, Catalog no.51- 66211E). CT26- luc cells were analyzed by flow cytometry (Beckm an Coulter Life Sciences, CytoFLEX LX Flow Cytometer). […]

calreticulin (ecto‐CRT) = assay: Immunofluorescence staining of cell surface calreticulin in CT26 cells; type: cell-based, mouse; conditions: CT26, 740 nm light
Experimental: Next, translocation of ER‐resident calreticulin (endo‐CRT) to the cell surface (ecto‐CRT) was measured by confocal microscopy following treatments with Ce6 or Os2 exposed to 740 or 770 nm illumination (Figure 3B,D). In this experiment, cells were fixed but not permeabilized before CRT staining to label only the ecto‐CRT, which is present at the cell surface. […]
concentrations and incub ated for 4 h in the dark. Following the 4 h dark incubation with Os2, wells containing the compound were replaced with the medium containing the selective ROS s caveng ers: 5 mM sodium azide (NaN₃) for singlet oxygen (¹O₂) or 50 mM D-mannitol for hydroxyl radicals (•OH). […] Cell viability was assessed using a 0.2 mg/mL resazurin solution incubated in the dark for 4 h, and fluorescence was measured on a BioTek Cytation 5 Cell Imaging Multimode […]
Singlet oxygen and hydroxyl r adical generation k inetics of Os2 in s olution The generation of singlet oxygen (¹O₂) and hydroxyl radicals (•OH) by Os2 in solution was evalu ated using AB DA (100 μ M) and HPF (5 μ M) as probes, respectively. […] AB DA absorban ce d ecay was monitored to track ¹O₂ gener ation, while HPF fluorescence increas e (λex = 490 nm; λ em = 500-700 nm) was measured to track •OH formation. Control solutions without Os2 wer e measured under the same conditions to account for background signals. […]

Structure (SMILES): C=Cc1c(C)c2cc3nc(c(CC(=O)O)c4[nH]c(cc5nc(cc1[nH]2)C(C)=C5CC)c(C)c4C(=O)O)[C@@H](CCC(=O)O)[C@@H]3C [Ce6, chlorin e6]
- Concentration at which approximately 5% of the cells remained alive (IC95) (CT26‐luc cells): 6.5 µM
- ecto‐CRT signal (calreticulin (ecto‐CRT)): weaker, but clearly visible
